Results: patent US20240116985A1, “STAPLED PEPTIDES AND METHODS THEREOF” (priority 2020, published 2024)

What follows are compounds tested against T1, full-length beta-Catenin (Uniprot ID P35222) (Homo sapiens, UniProt P35222) (assay: Fluorescence polarization IC50 (beta-catenin / 5FAM-TCF4 10-53 competition)). Details: fluorescence polarization; read-out: beta-Catenin FP IC50.
T1 construct: 10 nM full-length beta-Catenin (Uniprot ID P35222)
T1 sequence (P35222 1-781): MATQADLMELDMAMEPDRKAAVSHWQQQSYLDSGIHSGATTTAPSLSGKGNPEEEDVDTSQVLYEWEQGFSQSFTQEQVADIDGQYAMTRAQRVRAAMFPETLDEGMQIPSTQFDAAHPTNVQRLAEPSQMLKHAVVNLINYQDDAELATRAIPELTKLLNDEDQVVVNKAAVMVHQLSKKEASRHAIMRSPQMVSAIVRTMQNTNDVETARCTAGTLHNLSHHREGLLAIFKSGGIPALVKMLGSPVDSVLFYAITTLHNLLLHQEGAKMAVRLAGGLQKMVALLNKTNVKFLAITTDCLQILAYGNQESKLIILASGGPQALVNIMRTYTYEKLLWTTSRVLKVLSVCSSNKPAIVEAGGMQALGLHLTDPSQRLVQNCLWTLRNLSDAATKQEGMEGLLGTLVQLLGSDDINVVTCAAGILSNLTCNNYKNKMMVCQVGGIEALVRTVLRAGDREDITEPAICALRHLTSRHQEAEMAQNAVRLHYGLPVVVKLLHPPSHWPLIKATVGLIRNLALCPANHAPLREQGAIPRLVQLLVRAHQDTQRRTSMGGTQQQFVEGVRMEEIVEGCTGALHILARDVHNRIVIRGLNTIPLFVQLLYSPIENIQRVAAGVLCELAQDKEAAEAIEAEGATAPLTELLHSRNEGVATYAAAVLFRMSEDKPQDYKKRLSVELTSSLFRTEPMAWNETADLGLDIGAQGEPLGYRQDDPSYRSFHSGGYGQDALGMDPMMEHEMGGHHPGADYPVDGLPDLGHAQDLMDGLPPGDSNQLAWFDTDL
Type: binding

SMILES	IC50 [nM]
CC(=O)N1CCC[C@]12CC=CCCCC1(CCCC=CCCCOC(=O)N3CC[C@@](C(=O)N[C@@H](Cc4ccsc4)C(=O)N[C@@H](Cc4csc5ccccc45)C(=O)N[C@@H](CCC(N)=O)C(N)=O)(C3)NC(=O)[C@H](CC(C)C)NC(=O)[C@H](Cn3cc(CN(C)C)nn3)NC(=O)[C@H](C)NC(=O)[C@H](C)NC(=O)[C@H](CN(CC(=O)O)CC(F)(F)F)NC(=O)[C@H](CC(=O)O)NC1=O)NC(=O)[C@H](CC(C)(C)C)NC(=O)[C@H](CC(=O)O)NC2=O (stereo partly drawn) [I-1855, Ac-PL3-Asp-Npg-B5-Asp-TfeGA-Ala-Ala-[CH2NMe2]TriAzDap-Leu-PyrS2-3Thi-BztA-Gln-NH2]	849
C[C@@H]1NC(=O)[C@H](C)NC(=O)[C@H](CC(=O)O)NC(=O)[C@H](CC(=O)O)NC(=O)C2(CCCC=CCCCOC(=O)N3CC[C@@](C(=O)N[C@@H](Cc4ccsc4)C(=O)N[C@@H](Cc4csc5ccccc45)C(=O)N[C@@H](CCC(N)=O)C(N)=O)(C3)NC(=O)[C@H](CC(N)=O)NC(=O)[C@H](Cc3ccccc3)NC1=O)CCCC=CCS(=O)(=O)N1CCCC1C(=O)N[C@@H](CC(=O)O)C(=O)N[C@@H](CC(C)(C)C)C(=O)N2 (single isomer, unassigned) [I-1576, ProSAm3-Asp-Npg-B5-Asp-Asp-Ala-Ala-Phe-Asn-PyrS2-3Thi-BztA-Gln-NH2]	224
CC(=O)N1CCC[C@]12CC=CCCCC1(CCCC=CCCCCCC[C@@](C)(C(=O)N[C@@H](Cc3ccccc3)C(=O)N[C@@H](Cc3csc4ccccc34)C(=O)N[C@@H](CCC(N)=O)C(N)=O)NC(=O)[C@H](CCC(N)=O)NC(=O)[C@H](Cc3ccccc3)NC(=O)[C@H](C)NC(=O)[C@H](C)NC(=O)[C@H](CCC(=O)O)NC(=O)[C@H](CC(=O)O)NC1=O)NC(=O)[C@H](CCC(N)=O)NC(=O)[C@H](CC(=O)O)NC2=O (stereo partly drawn) [I-1540, Ac-PL3-Asp-Gln-B5-Asp-Glu-Ala-Ala-Phe-Gln-S8-Phe-BztA-Gln-NH2]	17
CC(=O)N1CCC[C@]12CC=CCCCC1(CCCC=CCCCOC(=O)N3CC[C@@](C(=O)N[C@@H](Cc4ccsc4)C(=O)N[C@@H](Cc4csc5ccccc45)C(=O)N[C@@H](CCC(N)=O)C(N)=O)(C3)NC(=O)[C@H](CC(C)C)NC(=O)[C@H](Cc3ccccc3)NC(=O)[C@H](C)NC(=O)[C@H](C)NC(=O)[C@H](CN(CC(=O)O)CC(F)(F)F)NC(=O)[C@H](C(C)(C)C(=O)O)NC1=O)NC(=O)[C@H](CC(C)(C)C)NC(=O)[C@H](CC(=O)O)NC2=O (stereo partly drawn) [I-1771, Ac-PL3-Asp-Npg-B5-bMe2Asp-TfeGA-Ala-Ala-Phe-Leu-PyrS2-3Thi-BztA-Gln-NH2]	209
CC(=O)N1CCC[C@H]1C(=O)N[C@@H](CC(=O)O)C(=O)N[C@@H](CC(C)(C)C)C(=O)N[C@]1(C)CCCCCCCCCOC(=O)N2CC[C@@](C(=O)N[C@@H](Cc3ccsc3)C(=O)N[C@@H](Cc3csc4ccccc34)C(=O)N[C@@H](CCC(N)=O)C(N)=O)(C2)NC(=O)[C@H](CC(C)C)NC(=O)[C@H](Cc2ccccc2)NC(=O)[C@H](C)NC(=O)[C@H](C)NC(=O)[C@H](CC(=O)O)NC(=O)[C@H](CC(=O)O)NC1=O [I-1991, Ac-Pro-Asp-Npg-R6-Asp-Asp-Ala-Ala-Phe-Leu-PyrS2-3Thi-BztA-Gln-NH2]	397
CC(=O)N1CCC[C@]12CC=CCCCC1(CCCC=CCCCCCC[C@@](C)(C(=O)N[C@@H](Cc3ccccc3)C(=O)N[C@@H](Cc3csc4ccccc34)C(=O)N[C@@H](CCC(N)=O)C(N)=O)NC(=O)[C@H](CC(C)C)NC(=O)[C@H](Cc3ccccc3)NC(=O)[C@H](C)NC(=O)[C@H](C)NC(=O)[C@H](CCC(=O)O)NC(=O)[C@H](CC(=O)O)NC1=O)NC(=O)[C@H](CCC(C)C)NC(=O)[C@H](CC(=O)O)NC2=O (stereo partly drawn) [I-1536, Ac-PL3-Asp-Hleu-B5-Asp-Glu-Ala-Ala-Phe-Leu-S8-Phe-BztA-Gln-NH2]	42
CC(=O)N1CCC[C@]12CC=CCCCC1(CCCC=CCCCOC(=O)N3CC[C@@](C(=O)N[C@@H](Cc4ccsc4)C(=O)N[C@@H](Cc4c[nH]c5cc(Cl)ccc45)C(=O)N[C@@H](CCC(N)=O)C(N)=O)(C3)NC(=O)[C@H](CC(C)C)NC(=O)[C@H](Cc3ccccc3)NC(=O)[C@H](C)NC(=O)[C@H](C)NC(=O)[C@H](CC(=O)O)NC(=O)[C@H](CC(=O)O)NC1=O)NC(=O)[C@H](CC(C)(C)C)NC(=O)[C@H](CC(=O)O)NC2=O (stereo partly drawn) [I-1435, Ac-PL3-Asp-Npg-B5-Asp-Asp-Ala-Ala-Phe-Leu-PyrS2-3Thi-6C1W-Gln-NH2]	90

Results, then the compound that gave them:

IC50 [nM]	SMILES
1720	CC(=O)N1Cc2cccc(c2)OCC=CCCCC2(CCCC=CCCCOC(=O)N3CC[C@@](C(=O)N[C@@H](Cc4ccsc4)C(=O)N[C@@H](Cc4csc5ccccc45)C(=O)N[C@@H](CCC(N)=O)C(N)=O)(C3)NC(=O)[C@H](CC(C)C)NC(=O)[C@H](Cc3ccccc3)NC(=O)[C@H](C)NC(=O)[C@H](C)NC(=O)[C@H](CN(CC(=O)O)CC(F)(F)F)NC(=O)[C@H](CC(=O)O)NC2=O)NC(=O)[C@H](CC(C)(C)C)NC(=O)[C@@H]1CC(=O)O (stereo partly drawn) [I-2550, Bn3OAllyl-AcAsp-Npg-B5-Asp-TfeGA-Ala-Ala-Phe-Leu-PyrS2-3Thi-BztA-Gln-NH2]
6	CC(=O)N1CCC[C@]12CC=CCCCC1(CCCC=CCCCOC(=O)N3CC[C@@](C(=O)N[C@@H](Cc4ccsc4)C(=O)N[C@@H](Cc4csc5ccccc45)C(=O)N[C@@H](Cc4c[nH]cn4)C(=O)N[C@@H](CCCCN)C(N)=O)(C3)NC(=O)[C@H](CCC(N)=O)NC(=O)[C@H](Cc3ccccc3)NC(=O)[C@H](C)NC(=O)[C@H](C)NC(=O)[C@H](CC(=O)O)NC(=O)[C@H](CC(=O)O)NC1=O)NC(=O)[C@H](CC(C)(C)C)NC(=O)[C@H](CC(=O)O)NC2=O (stereo partly drawn) [I-2229, Ac-PL3-Asp-Npg-B5-Asp-Asp-Ala-Ala-Phe-Gln-PyrS2-3thi-BztA-His-Lys-NH2]
3390	CC(=O)N1CCC[C@]12CC=CCCCC1(CCCC=CCCCOC(=O)N3CC[C@@](C(=O)N[C@@H](Cc4cccc(C(F)(F)F)c4)C(=O)N[C@@H](Cc4csc5ccccc45)C(=O)N[C@@H](CCC(N)=O)C(N)=O)(C3)NC(=O)[C@H](CC(N)=O)NC(=O)[C@H](Cc3ccccc3)NC(=O)[C@H](C)NC(=O)[C@H](C)NC(=O)[C@H]([C@@H](C)O)NC(=O)[C@H](CC(N)=O)NC1=O)NC(=O)[C@H](CC(C)(C)C)NC(=O)[C@H](CC(=O)O)NC2=O (stereo partly drawn) [I-1997, Ac-PL3-Asp-Npg-B5-Asn-Thr-Ala-Ala-Phe-Asn-PyrS2-3F3MeF-BztA-Gln-NH2]
3080	CC(=O)N1CCC[C@]12CC=CCCCC1(CCCC=CCCCOC(=O)N3CC[C@@](C(=O)N[C@@H](Cc4cccc(Br)c4)C(=O)N[C@@H](Cc4ccsc4)C(=O)N[C@@H](CCC(N)=O)C(N)=O)(C3)NC(=O)[C@H](CC(C)C)NC(=O)[C@H](Cc3ccccc3)NC(=O)[C@H](C)NC(=O)[C@H](C)NC(=O)[C@H](Cc3cccc(C(=O)O)c3)NC(=O)[C@H](CC(=O)O)NC1=O)NC(=O)[C@H](CC(C)(C)C)NC(=O)[C@H](CC(=O)O)NC2=O (stereo partly drawn) [I-2152, Ac-PL3-Asp-Npg-B5-Asp-3COOHF-Ala-Ala-Phe-Leu-PyrS2-3BrF-3Thi-Gln-NH2]
627	CC(=O)N1CCC[C@]12CC=CCCCC1(CCCC=CCCCOC(=O)N3CC[C@@](C(=O)N[C@@H](Cc4ccsc4)C(=O)N[C@@H](Cc4csc5ccccc45)C(=O)N[C@@H](CC(C)C)C(N)=O)(C3)NC(=O)[C@H](CC(N)=O)NC(=O)[C@H](Cc3ccccc3)NC(=O)[C@H](C)NC(=O)C(C)(C)NC(=O)[C@H]([C@@H](C)O)NC(=O)[C@H](CC(N)=O)NC1=O)NC(=O)[C@H](CC(C)(C)C)NC(=O)[C@H](CC(=O)O)NC2=O (stereo partly drawn) [I-2479, Ac-PL3-Asp-Npg-B5-Asn-Thr-Aib-Ala-Phe-Asn-PyrS2-3Thi-BztA-Leu-NH2]
26	CC(=O)N1CCC[C@]12CC=CCCCC1(CCCC=CCCCOC(=O)N3CC[C@@](C(=O)N[C@@H](Cc4ccsc4)C(=O)N[C@@H](Cc4csc5ccccc45)C(=O)N[C@@H](CCC(N)=O)C(N)=O)(C3)NC(=O)[C@H](CCO)NC(=O)[C@H](Cc3cccc(C(=O)O)c3)NC(=O)[C@H](C)NC(=O)[C@H](C)NC(=O)[C@H](Cc3ccc(O)cc3)NC(=O)[C@H](CC(=O)O)NC1=O)NC(=O)[C@H](CC(C)(C)C)NC(=O)[C@H](CC(=O)O)NC2=O (stereo partly drawn) [I-2125, Ac-PL3-Asp-Npg-B5-Asp-Tyr-Ala-Ala-3COOHF-Hse-PyrS2-3Thi-BztA-Gln-NH2]
116	CC(C)COC(=O)N1CCC[C@]12CC=CCCCC1(CCCC=CCCCOC(=O)N3CC[C@@](C(=O)N[C@@H](Cc4ccsc4)C(=O)N[C@@H](Cc4csc5ccccc45)C(=O)N[C@@H](Cc4c[nH]cn4)C(N)=O)(C3)NC(=O)[C@H](CCC(N)=O)NC(=O)[C@H](Cc3ccccc3)NC(=O)[C@H](C)NC(=O)[C@H](C)NC(=O)[C@H](CC(=O)O)NC(=O)[C@H](CC(=O)O)NC1=O)NC(=O)[C@H](CC(C)(C)C)NC(=O)[C@H](CC(=O)O)NC2=O (stereo partly drawn) [I-2364, CO2iBu-PL3-Asp-Npg-B5-Asp-Asp-Ala-Ala-Phe-Gln-PyrS2-3Thi-BztA-His-NH2]
